Consider five compounds from patent US20240417387A1, “SULFONYLPIPERAZINYL COMPOUNDS FOR TREATMENT OF BACTERIAL INFECTIONS” (Hoffmann-La Roche Inc., priority 2021, published 2024).

≈ marks a conversion by molar mass, not a printed value.

Data set [1] has as its target Escherichia coli UDP-2,3-diacylglucosamine hydrolase (LpxH) (Escherichia coli (strain K12), UniProt P43341). In words: Enzymatic IC50 assay of Escherichia coli LpxH (UMP/CMP-Glo luminescence). The format is biochemical. The note with it: Enzymatic IC50 against Escherichia coli LpxH; read-out: IC50 (converted). In outline:
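LpxH (2 nM) preincubated 10 min at room temperature with compound (100 μM to 1.7 nM) in Tris-HCl pH7.5 buffer with 2.5 mM MnCl2, then reacted with 5 μM UDP-DAG for 20 min. Reaction heat-stopped at 95° C.; released UMP converted to ATP and read by luciferase luminescence (UMP/CMP-Glo).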

The test system of data set [2] is Escherichia coli ATCC 25922. The experiment in a line: Minimal Inhibitory Concentration (MIC) broth dilution assay, E. coli ATCC 25922. The class given is cell-based. The settings on record: Escherichia coli, ATCC25922, 20 h, read-out: MIC E. coli ATCC 25922. Put shortly: (§1)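 Broth microdilution with twofold compound series in cation-adjusted Mueller Hinton broth, inoculum 5×10^5 CFU/mL, applied to each strain. Plates incubated 20 h at 35 °C in ambient air. MIC […] recorded as the lowest concentration with no visible growth, read by eye.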
(In broth dilution the organism is exposed to a series of concentrations in liquid medium.)

In data set [3] the test system is Klebsiella pneumonia ATCC 43816. In words: Minimal Inhibitory Concentration (MIC) broth dilution assay, K. pneumonia ATCC 43816. The class given is cell-based. The note with it: Klebsiella pneumoniae, ATCC43816, 20 hours at 35° C., CAMHB, read-out: MIC K. p ATCC 43816. Put shortly: as §1
In data set [4] the test system is Escherichia coli BW 25113. The experiment in a line: Minimal Inhibitory Concentration (MIC) broth dilution assay, E. coli BW 25113. The class given is cell-based. The note with it: Escherichia coli, BW25113, 20 hours at 35° C., CAMHB, read-out: MIC E. coli K-12 BW 25113. In outline:
as §1

Data set [5] can be described thus: Human microsome stability assay. The class given is in vitro ADME. The settings on record: human liver microsomes 0.5 mg/mL, 37° C., pH 7.4, NADPH regenerating system. Put shortly:
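Compound […] with 0.5 mg/mL human liver microsomal protein in 100 mM potassium phosphate pH 7.4, 10 min preincubation at 37 °C, started with NADPH regenerating system. Sampled 0–30 min, remaining compound by LC-MS/MS; clearance binned low <7, medium 7–16.2, high >16.2 mL/min/kg.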

In the next data set the test system is LPS synthesis pathway. The note with it: reported in Bioorganic Chemistry (2020), 102, 104055; cited from earlier work.
The subject of data set [6] is efflux-deficient Escherichia coli strains. The note with it: reported in Bioorganic Chemistry (2020), 102, 104055; cited from earlier work.

Sequence of Escherichia coli UDP-2,3-diacylglucosamine hydrolase (LpxH) (P43341 whole entry): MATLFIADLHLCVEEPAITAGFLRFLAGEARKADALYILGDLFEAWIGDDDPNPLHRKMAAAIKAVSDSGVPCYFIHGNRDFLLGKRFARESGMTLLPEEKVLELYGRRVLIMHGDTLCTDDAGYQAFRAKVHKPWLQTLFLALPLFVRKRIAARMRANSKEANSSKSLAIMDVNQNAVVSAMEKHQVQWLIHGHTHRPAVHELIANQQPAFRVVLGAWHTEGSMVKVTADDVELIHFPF

As a reminder, the IC50 is the concentration needed to halve the response being measured. By MIC is commonly meant the smallest concentration in the dilution series that meets the test's criterion for growth inhibition. Regarding `C[N+](C)(CCN)CCNC(=O)[C@H]1CC[C@H](C(F)(F)c2cc(Cl)nc(N3CCN(S(=O)(=O)c4ccc(N5C[C@H](N)CC5=O)cc4)CC3)c2)CC1` [Example 073, Trans-2-aminoethyl-[2-[[4-[[2-chloro-6-[4-[4-[(4R)-4-amino-2-oxo-pyrrolidin-1-yl]phenyl]sulfonylpiperazin-1-yl]-4-pyridyl]-difluoro-methyl]cyclohexanecarbonyl]amino]ethyl]-dimethyl-ammonium], in data set [1], the 50% inhibitory concentration (IC50) is under 2.75 nM. Moreover, the values for the minimum inhibitory concentration (MIC) in data set [2], in data set [3] and in data set [4] were 1.2 µg/mL, 2.4 µg/mL and 1.2 µg/mL, respectively. In addition, the “Clearance of Human microsome” value in data set [5] was 6.15 mL/min/kg.
Regarding `NCC[N+]1(CCNC(=O)[C@H]2CC[C@H](C(F)(F)c3cc(Cl)nc(N4CCN(S(=O)(=O)c5ccc(N6C[C@H](N)CC6=O)cc5)CC4)c3)CC2)CCCC1` [Example 074, Trans-N-[2-[1-(2-aminoethyl)pyrrolidin-1-ium-1-yl]ethyl]-4-[[2-[4-[4-[(4R)-4-amino-2-oxo-pyrrolidin-1-yl]phenyl]sulfonylpiperazin-1-yl]-6-chloro-4-pyridyl]-difluoro-methyl]cyclohexanecarboxamide], the IC50 in data set [1] is 39.9 nM. The MIC in data set [2], in data set [3] and in data set [4] was 1.9 µg/mL in each case. For the same compound, the “Clearance of Human microsome” value in data set [5] is 6.15 mL/min/kg.
Turning to `NCC(=O)NCCNC(=O)[C@H]1CC[C@H](C(F)(F)c2cc(Cl)nc(N3CCN(S(=O)(=O)c4ccc(N5C[C@H](N)CC5=O)cc4)CC3)c2)CC1` [Example 075, Trans-N-[2-[(2-aminoacetyl)amino]ethyl]-4-[[2-chloro-6-[4-[4-[(4R)-4-amino-2-oxo-pyrrolidin-1-yl]phenyl]sulfonylpiperazin-1-yl]-4-pyridyl]-difluoro-methyl]cyclohexanecarboxamide], the concentration for half-maximal inhibition (IC50) in data set [1] was 8.44 nM. Besides, the figures for the minimum inhibitory concentration (MIC) in data set [2], in data set [3] and in data set [4] were 2.3 µg/mL (≈ 3.23 µM), 1.2 µg/mL (≈ 1.69 µM) and 2.3 µg/mL (≈ 3.23 µM), respectively. In addition, the “Clearance of Human microsome” value in data set [5] was 10.47 mL/min/kg.
`COC(CN)CNC(=O)[C@H]1CC[C@H](C(F)(F)c2cc(Cl)nc(N3CCN(S(=O)(=O)c4ccc(N5C[C@H](N)CC5=O)cc4)CC3)c2)CC1` (stereo partly drawn) [Example 076, Trans-N-(3-amino-2-methoxy-propyl)-4-[[2-chloro-6-[4-[4-[(4R)-4-amino-2-oxo-pyrrolidin-1-yl]phenyl]sulfonylpiperazin-1-yl]-4-pyridyl]-difluoro-methyl]cyclohexanecarboxamide]: in data set [1], the IC50 was under 2.86 nM. Besides, the minimum inhibitory concentration (MIC) in data set [2], in data set [3] and in data set [4] was 1.1 µg/mL (≈ 1.58 µM) throughout. In addition, the “Clearance of Human microsome” value in data set [5] turned out to be 9.06 mL/min/kg.
In the case of `CC(=O)N1CCc2cc(S(=O)(=O)N3CCN(c4cc(Cl)cc(C(F)(F)F)c4)CC3)ccc21` [JH-LPH-33, reference compound], the half-inhibitory concentration (IC50) in data set [1] was 293 nM. Also, the minimum inhibitory concentration (MIC) in data set [2], in data set [3] and in data set [4] was over 24 µg/mL in each case. In data set [5], the “Clearance of Human microsome” value was found to be 20.94 mL/min/kg. Also, the “LPS synthesis pathway inhibition activity” value with LPS synthesis pathway was “LPS synthesis pathway inhibition activity”. Besides, the “antibiotic activity against efflux-deficient Escherichia coli strains” value in data set [6] is “antibiotic activity”.
